# Test results from US20110003892A1, “ALL-TRANS RETINOID ESTERS AS ACTIVE PHARMACEUTICAL INGREDIENTS, ORAL AND TOPICAL DOSAGE FORM COMPOSITIONS THEREOF, AND METHODS OF TREATING SKIN CONDITIONS THEREOF” (priority 2008, published 2011).
# Columns and labels:
# RARs = settings: Repa J J et al., 1993; cited from earlier work
# [1] = Body weight change from baseline in orally dosed Rhino mice; type: in vivo; settings: oral treatment, 24 days, any dose of retinoid studied (FIG. 2)
# Method: (§1) Animals and dose administration. Rhino mice 6-8 weeks old were orally dosed. The mice were dosed daily. The mice were weighed three times per week, and doses were adjusted weekly based on body weight. The oral formulation was made by mixing each API with Wesson® soybean oil. The oral dose was delivered to the back of the mouth of each mouse. Mice were sacrificed 4 hours after the final oral dose. At sacrifice, the dorsal skin was collected for histological studies.
# Rhino mice = assay: Comedolytic effect in orally dosed Rhino mice (comedone area by histology); type: in vivo; settings: oral treatment; for dose producing maximal reduction in comedone size as compared to the vehicle control: 24 days (FIG. 1); for reduction in comedone area: each retinoid alone, 24 days, various doses (FIG. 1)
# Method: as §1
# Comedolytic effect. The extent of the comedolytic effect (i.e., efficacy) was assessed by measuring the average area of the comedones, whereby the smaller the area, the larger the effect and efficacy. The comedone area was determined by histological analysis of tissue sections. Skin was fixed overnight in 4% paraformaldehyde at 4° C. with gentle agitation, and the skin was dehydrated the next day in 100% methanol. Samples were embedded in paraffin and a qty. nine 10μ sections each spaced 150μ apart were prepared from each Rhino mouse. Five of the nine sections were digitally imaged (6× magnification) for comedone analysis using Metamorph Imaging Software (trace function).
# The perimeter of each imaged comedone taken from the 5 sections was traced using a Wacom Intuos 3 Graphics Tablet interfaced with the software. The number of pixels representing each individual comedone area was obtained. The mean number of pixels per comedone was obtained for each Rhino mouse. For comedones that were completely healed (i.e., area=0), a pixel value approaching 0 (<10) was assessed. The individual comedone average for each mouse was used to calculate the treatment group mean. Results in the figures herein have been expressed in terms of mean±standard error of the mean.
# Preparation of oral retinoid dosing formulations. A concentrated stock solution containing each retinoid was prepared in dichloromethane. The retinoid concentrated stock solution was diluted into ethanol. The concentration of retinoid in that diluted stock solution was determined spectrophotometrically, whereby the molar extinction coefficient=44,340 and λmax=350. The purity of the SB-RA, IPE-RA, IB-RA, and t-butyl RA was determined to be greater than 98% by HPLC. A predetermined volume of retinoid-containing solution was added to Wesson® oil, the sample was mixed, and the residual dichloromethane was removed by flushing the oil with argon for 2-3 hours under a vapor hood. The final dose was delivered orally using ≦50 μL of oil.
compound,measurement,setting,value
CC1=C(/C=C/C(C)=C/C=C/C(C)=C\C(=O)O)C(C)(C)CCC1 [13-cis retinoic acid],binding to the RARs,RARs,does not bind
"CC1=C(/C=C/C(C)=C/C=C/C(C)=C/C(=O)OC(C)(C)C)C(C)(C)CCC1 [t-butyl-RA, all-trans-retinoic acid tert-butyl ester]",% change from the starting baseline weight (overall group weight),[1],no significant reduction
same,dose producing maximal reduction in comedone size as compared to the vehicle control,Rhino mice,166 μmole/kgBW
same,reduction in comedone area,Rhino mice,significant dose-dependent reduction
"CCC(C)OC(=O)/C=C(C)/C=C/C=C(C)/C=C/C1=C(C)CCCC1(C)C (stereo not drawn) [SB-RA, all-trans-retinoic acid sec-butyl ester]",% change from the starting baseline weight (overall group weight),[1],no significant reduction
same,dose producing maximal reduction in comedone size as compared to the vehicle control,Rhino mice,26.2 μmole/kgBW
same,reduction in comedone area,Rhino mice,significant dose-dependent reduction
"CC1=C(/C=C/C(C)=C/C=C/C(C)=C/C(=O)OC(C)C)C(C)(C)CCC1 [IPE-RA, all-trans-retinoic acid iso-propyl ester]",% change from the starting baseline weight (overall group weight),[1],no significant reduction
same,dose producing maximal reduction in comedone size as compared to the vehicle control,Rhino mice,26.2 μmole/kgBW
same,reduction in comedone area,Rhino mice,significant dose-dependent reduction
"CC1=C(/C=C/C(C)=C/C=C/C(C)=C/C(=O)OCC(C)C)C(C)(C)CCC1 [IB-RA, All-trans-retinoic acid iso-butyl ester]",% change from the starting baseline weight (overall group weight),[1],no significant reduction
same,dose producing maximal reduction in comedone size as compared to the vehicle control,Rhino mice,26.2 μmole/kgBW
same,reduction in comedone area,Rhino mice,significant dose-dependent reduction
